Measurements: patent US6537948B1, “Uracil compounds and use thereof” (Sumitomo Chemical Company, Limited, priority 2000, dated 2003)

Experiments:
[1] = tested on: ivyleaf morningglory (Ipomoea hederacea); assay: Test Example 1: foliar treatment of field; assay type: in vivo; conditions: foliar spray, dosage 125 g/ha, 16 days after application
Description: (§1) A cylindrical plastic pot having a diameter of 10 cm and a depth of 10 cm was filled with soil and then seeded with ivyleaf morningglory (Ipomoea hederacea) and velvetleaf (Abutilon theophrasti). These test plants were grown in a greenhouse for 10 days. Then, each of compounds 1-2, 1-42, 1-45, 1-48, 2-2, 2-7, 2-42, 2-45, 3-2, 3-12, 4-7, 4-85, 5-12-R, 5-12-S, 5-17, 6-2, 7-2, 7-6, 7-8, 7-12, 7-48, 7-50, 7-84, 7-118, 7-119, 7-125, 9-7, 9-27 and 9-45 was formulated into an emulsifiable concentrate according to Formulation Example 2 and then diluted to the prescribed amount with water containing a spreading agent and the dilution was uniformly sprayed over the foliage of the test plants with a sprayer at a rate of 1000 liters per hectare. After the application, the test plants were grown in the greenhouse for 16 days, and the herbicidal activity was determined.

[2] = tested on: velvetleaf (Abutilon theophrasti); assay: Test Example 1: foliar treatment of field; assay type: in vivo; conditions: foliar spray, dosage 125 g/ha, 16 days after application
Description: as §1

[3] = tested on: ivyleaf morningglory (Ipomoea hederacea); assay: Test Example 2: soil surface treatment of field; assay type: in vivo; conditions: soil surface spray, dosage 500 g/ha, 19 days after application
Excerpt: (§2) A cylindrical plastic pot having a diameter of 10 cm and a depth of 10 cm was filled with soil and then seeded with ivyleaf morningglory (Ipomoea hederacea) and velvetleaf (Abutilon theophrasti). Then, each of the compounds 1-2, 1-42, 1-48, 2-2, 2-7, 2-42, 2-45, 3-2, 3-12, 4-7, 4-85, 5-12-R, 5-12-S, 5-17, 6-2, 7-2, 7-6, 7-8, 7-12, 7-48, 7-50, 7-84, 7-118, 7-119, 7-125, 9-7, 9-27 and 9-45 was formulated into an emulsifiable concentrate according to Formulation Example 2 and then diluted to the prescribed amount with water, and the dilution was uniformly sprayed over the surface of the soil with a sprayer at a rate of 1000 liters per hectare. After the application, the test plants were grown in the greenhouse for 19 days, and the herbicidal activity was examined.

[4] = tested on: velvetleaf (Abutilon theophrasti); assay: Test Example 2: soil surface treatment of field; assay type: in vivo; conditions: soil surface spray, dosage 500 g/ha, 19 days after application
Excerpt: as §2

SMILES: COC(=O)C(C)Oc1cc(OC)nc(Oc2cc(-n3c(=O)cc(C(F)(F)F)n(C)c3=O)c(F)cc2Cl)n1 (stereo not drawn) [Compound 1-42, 2-{2-chloro-4-fluoro-5-[3-methyl-2,6-dioxo-4-(trifluoromethyl)-1,2,3,6-tetrahydropyrimidin-1-yl]phenoxy}-6-methoxy-4-{1-(methoxycarbonyl)ethoxy}pyrimidine]
- growth of ivyleaf morningglory (herbicidal activity) [1]: completely controlled
- growth of velvetleaf (herbicidal activity) [2]: completely controlled
- growth of ivyleaf morningglory (herbicidal activity) [3]: completely controlled
- growth of velvetleaf (herbicidal activity) [4]: completely controlled
- melting point: 71.2 °C

SMILES: COC(=O)COc1ncccc1Oc1cc(-n2c(=O)cc(C(F)(F)F)n(C)c2=O)c(F)cc1[N+](=O)[O-] [Compound 9-45, 3-{4-fluoro-5-[3-methyl-2,6-dioxo-4-(trifluoromethyl)-1,2,3,6-tetrahydropyrimidin-1-yl]-2-nitrophenoxy}-2-(methoxycarbonyl)methoxypyridine]
- growth of ivyleaf morningglory (herbicidal activity) [1]: completely controlled
- growth of velvetleaf (herbicidal activity) [2]: completely controlled
- growth of ivyleaf morningglory (herbicidal activity) [3]: completely controlled
- growth of velvetleaf (herbicidal activity) [4]: completely controlled

SMILES: CCOC(=O)COc1ncccc1Oc1cc(-n2c(=O)cc(C(F)(F)F)n(C)c2=O)c(F)cc1Cl [Compound 7-8, 3-{2-chloro-4-fluoro-5-[3-methyl-2,6-dioxo-4-(trifluoromethyl)-1,2,3,6-tetrahydropyrimidin-1-yl]phenoxy}-2-(ethoxycarbonyl)methoxypyridine]
- growth of ivyleaf morningglory (herbicidal activity) [1]: completely controlled
- growth of velvetleaf (herbicidal activity) [2]: completely controlled
- growth of ivyleaf morningglory (herbicidal activity) [3]: completely controlled
- growth of velvetleaf (herbicidal activity) [4]: completely controlled

SMILES: COC(=O)COc1ncccc1Oc1cc(-n2c(=O)cc(C(F)(F)F)n(C)c2=O)c(F)cc1Br [Compound 9-7, 3-{2-bromo-4-fluoro-5-[3-methyl-2,6-dioxo-4-(trifluoromethyl)-1,2,3,6-tetrahydropyrimidin-1-yl]phenoxy}-2-(methoxycarbonyl)methoxypyridine]
- growth of ivyleaf morningglory (herbicidal activity) [1]: completely controlled
- growth of velvetleaf (herbicidal activity) [2]: completely controlled
- growth of ivyleaf morningglory (herbicidal activity) [3]: completely controlled
- growth of velvetleaf (herbicidal activity) [4]: completely controlled

SMILES: Cn1c(C(F)(F)F)cc(=O)n(-c2cc(Oc3cccnc3OCC(=O)OC3CCCC3)c(Cl)cc2F)c1=O [Compound 7-125, 3-{2-chloro-4-fluoro-5-[3-methyl-2,6-dioxo-4-(trifluoromethyl)-1,2,3,6-tetrahydropyrimidin-1-yl]phenoxy}-2-(c-pentyloxycarbonyl)methoxypyridine]
- growth of ivyleaf morningglory (herbicidal activity) [1]: completely controlled
- growth of velvetleaf (herbicidal activity) [2]: completely controlled
- growth of ivyleaf morningglory (herbicidal activity) [3]: completely controlled
- growth of velvetleaf (herbicidal activity) [4]: completely controlled

SMILES: COC(=O)C(C)Oc1nccc(Oc2cc(-n3c(=O)cc(C(F)(F)F)n(C)c3=O)c(F)cc2Cl)n1 (stereo not drawn) [Compound 3-2, methyl 2-([4-{2-chloro-4-fluoro-5-[3-methyl-2,6-dioxo-4-(trifluoromethyl)-1,2,3,6-tetrahydropyrimidin-1-yl]phenoxy}pyrimidin-2-yl]oxy)propionate]
- growth of ivyleaf morningglory (herbicidal activity) [1]: completely controlled
- growth of velvetleaf (herbicidal activity) [2]: completely controlled
- growth of ivyleaf morningglory (herbicidal activity) [3]: completely controlled
- growth of velvetleaf (herbicidal activity) [4]: completely controlled

SMILES: Cn1c(C(F)(F)F)cc(=O)n(-c2cc(Oc3cccnc3OCC(=O)O)c(Cl)cc2F)c1=O [Compound 7-6, 3-{2-chloro-4-fluoro-5-[3-methyl-2,6-dioxo-4-(trifluoromethyl)-1,2,3,6-tetrahydropyrimidin-1-yl]phenoxy}-2-carboxymethoxypyridine]
- growth of ivyleaf morningglory (herbicidal activity) [1]: completely controlled
- growth of velvetleaf (herbicidal activity) [2]: completely controlled
- growth of ivyleaf morningglory (herbicidal activity) [3]: completely controlled
- growth of velvetleaf (herbicidal activity) [4]: completely controlled

SMILES: COC(=O)C(C)Oc1cccnc1Oc1cc(-n2c(=O)cc(C(F)(F)F)n(C)c2=O)c(F)cc1Cl (stereo not drawn) [Compound 2-2, 2-{2-chloro-4-fluoro-5-[3-methyl-2,6-dioxo-4-(trifluoromethyl)-1,2,3,6-tetrahydropyrimidin-1-yl]phenoxy}-3-{1-(methoxycarbonyl)ethoxy}pyridine]
- growth of ivyleaf morningglory (herbicidal activity) [1]: completely controlled
- growth of velvetleaf (herbicidal activity) [2]: completely controlled
- growth of ivyleaf morningglory (herbicidal activity) [3]: completely controlled
- growth of velvetleaf (herbicidal activity) [4]: completely controlled

SMILES: COC(=O)C(C)Oc1ncccc1Oc1cc(-n2c(=O)cc(C(F)(F)F)n(C)c2=O)c(F)cc1Cl (stereo not drawn) [Compound 7-2, 3-{2-chloro-4-fluoro-5-[3-methyl-2,6-dioxo-4-(trifluoromethyl)-1,2,3,6-tetrahydropyrimidin-1-yl]phenoxy}-2-{1-(methoxycarbonyl)ethoxy} pyridine]
- growth of ivyleaf morningglory (herbicidal activity) [1]: completely controlled
- growth of velvetleaf (herbicidal activity) [2]: completely controlled
- growth of ivyleaf morningglory (herbicidal activity) [3]: completely controlled
- growth of velvetleaf (herbicidal activity) [4]: completely controlled

SMILES: CCCCCOC(=O)COc1ncccc1Oc1cc(-n2c(=O)cc(C(F)(F)F)n(C)c2=O)c(F)cc1Cl [Compound 7-50, 3-{2-chloro-4-fluoro-5-[3-methyl-2,6-dioxo-4-(trifluoromethyl)-1,2,3,6-tetrahydropyrimidin-1-yl]phenoxy}-2-(n-pentyloxycarbonyl)methoxypyridine]
- growth of ivyleaf morningglory (herbicidal activity) [1]: completely controlled
- growth of velvetleaf (herbicidal activity) [2]: completely controlled
- growth of ivyleaf morningglory (herbicidal activity) [3]: completely controlled
- growth of velvetleaf (herbicidal activity) [4]: completely controlled

SMILES: CCCOC(=O)COc1ncccc1Oc1cc(-n2c(=O)cc(C(F)(F)F)n(C)c2=O)c(F)cc1Cl [Compound 7-48, 3-{2-chloro-4-fluoro-5-[3-methyl-2,6-dioxo-4-(trifluoromethyl)-1,2,3,6-tetrahydropyrimidin-1-yl]phenoxy}-2-(n-propoxycarbonyl)methoxypyridine]
- growth of ivyleaf morningglory (herbicidal activity) [1]: completely controlled
- growth of velvetleaf (herbicidal activity) [2]: completely controlled
- growth of ivyleaf morningglory (herbicidal activity) [3]: completely controlled
- growth of velvetleaf (herbicidal activity) [4]: completely controlled

SMILES: COC(=O)C(C)Oc1ccc(Oc2cc(-n3c(=O)cc(C(F)(F)F)n(C)c3=O)c(F)cc2Cl)cn1 (stereo not drawn) [Compound 7-12, 5-{2-chloro-4-fluoro-5-[3-methyl-2,6-dioxo-4-(trifluoromethyl)-1,2,3,6-tetrahydropyrimidin-1-yl]phenoxy}-2-{1-(methoxycarbonyl)ethoxy}pyridine]
- growth of ivyleaf morningglory (herbicidal activity) [1]: completely controlled
- growth of velvetleaf (herbicidal activity) [2]: completely controlled
- growth of ivyleaf morningglory (herbicidal activity) [3]: completely controlled
- growth of velvetleaf (herbicidal activity) [4]: completely controlled

SMILES: COC(=O)COc1cncnc1Oc1cc(-n2c(=O)cc(C(F)(F)F)n(C)c2=O)c(F)cc1Cl [Compound 3-57, 4-{2-chloro-4-fluoro-5-[3-methyl-2,6-dioxo-4-(trifluoromethyl)-1,2,3,6-tetrahydropyrimidin-1-yl]phenoxy}-5-(methoxycarbonyl)methoxypyrimidine]
- melting point: 62.5 °C

SMILES: COC(=O)COC(=O)COc1ncccc1Oc1cc(-n2c(=O)cc(C(F)(F)F)n(C)c2=O)c(F)cc1Cl [Compound 7-119, 3-{2-chloro-4-fluoro-5-[3-methyl-2,6-dioxo-4-(trifluoromethyl)-1,2,3,6-tetrahydropyrimidin-1-yl]phenoxy}-2-[(methoxycarbonyl)methoxycarbonylmethoxy]pyridine]
- growth of ivyleaf morningglory (herbicidal activity) [1]: completely controlled
- growth of velvetleaf (herbicidal activity) [2]: completely controlled
- growth of ivyleaf morningglory (herbicidal activity) [3]: completely controlled
- growth of velvetleaf (herbicidal activity) [4]: completely controlled
